Assays:
[1] = Stability test (purity and XRPD pattern after 30 days storage); type: physicochemical; conditions: for stability compared to the amorphous form: conclusion from Table 6
Description: X-ray powder diffraction instrument and test conditions involved in the present disclosure: the model of the X-ray diffraction instrument was Rigaku MiniFlex-600 Cu target; the operation method included a scanning speed of 10°/min and scanning step width of 0.01°.
High-performance liquid chromatography (HPLC) test conditions involved in the present disclosure: the model of the liquid chromatograph was Agilent 1260; the chromatographic column was Welch XB C-18 250 mm*4.6 mm 3 μm; the detection wavelength was 260 nm; and the column temperature was 40° C.
The amorphous form of compound represented by Formula I prepared in the described preparation examples, the crystal form A of the compound represented by Formula I prepared in Example 1, the crystal form B of the compound represented by Formula I prepared in Example 9, the crystal form C of the compound represented by Formula I prepared in Example 12, the crystal form D of the compound represented by Formula I prepared in Example 17, and the crystal form E of the compound represented by Formula I prepared in Example 20 were placed under various conditions: 75% RH, 92.5% RH, 40° C., 60° C., and illumination for 30 days, the X-ray powder diffraction pattern and purity of each crystal form were determined, and the specific results are shown in Table 6.

Granularity test = type: physicochemical
From the text: (§1) The amorphous form of the compound represented by Formula I prepared in Preparation Example, the crystal form A of the compound represented by Formula I prepared in Example 1, the crystal form B of the compound represented by Formula I prepared in Example 9, the crystal form C of the compound represented by Formula I prepared in Example 12, the crystal form D of the compound represented by Formula I prepared in Example 17, and the crystal form E of the compound represented by Formula I prepared in Example 20 were measured for granularity, and the specific results are shown in Table 7 below: […]

[2] = Fluidity test (angle of repose); type: physicochemical; conditions: for fluidity compared to the amorphous form: conclusion from Table 8
From the text: as §1, with “for angle of repose,” for “for granularity,”, “Table 8” for “Table 7”

Hygroscopicity test = type: physicochemical; conditions: for hygroscopicity: 75% RH and 25° C. for 24 h; for hygroscopicity compared to the amorphous form: conclusion from Table 9
From the text: The amorphous form of the compound represented by Formula I prepared in Preparation Example, the crystal form A of the compound represented by Formula I prepared in Example 1, the crystal form B of the compound represented by Formula I prepared in Example 9, the crystal form C of the compound represented by Formula I prepared in Example 12, the crystal form D of the compound represented by Formula I prepared in Example 17, and the crystal form E of the compound represented by Formula I prepared in Example 20 were placed in an environment of 75% RH and 25° C. for 24 h and then each was weighed to calculate the hygroscopicity.

RET kinase = RET kinase (Homo sapiens, UniProt P07949); conditions: stated for WO2020/207419A1; cited from earlier work
Chain of RET kinase (P07949 29-1114): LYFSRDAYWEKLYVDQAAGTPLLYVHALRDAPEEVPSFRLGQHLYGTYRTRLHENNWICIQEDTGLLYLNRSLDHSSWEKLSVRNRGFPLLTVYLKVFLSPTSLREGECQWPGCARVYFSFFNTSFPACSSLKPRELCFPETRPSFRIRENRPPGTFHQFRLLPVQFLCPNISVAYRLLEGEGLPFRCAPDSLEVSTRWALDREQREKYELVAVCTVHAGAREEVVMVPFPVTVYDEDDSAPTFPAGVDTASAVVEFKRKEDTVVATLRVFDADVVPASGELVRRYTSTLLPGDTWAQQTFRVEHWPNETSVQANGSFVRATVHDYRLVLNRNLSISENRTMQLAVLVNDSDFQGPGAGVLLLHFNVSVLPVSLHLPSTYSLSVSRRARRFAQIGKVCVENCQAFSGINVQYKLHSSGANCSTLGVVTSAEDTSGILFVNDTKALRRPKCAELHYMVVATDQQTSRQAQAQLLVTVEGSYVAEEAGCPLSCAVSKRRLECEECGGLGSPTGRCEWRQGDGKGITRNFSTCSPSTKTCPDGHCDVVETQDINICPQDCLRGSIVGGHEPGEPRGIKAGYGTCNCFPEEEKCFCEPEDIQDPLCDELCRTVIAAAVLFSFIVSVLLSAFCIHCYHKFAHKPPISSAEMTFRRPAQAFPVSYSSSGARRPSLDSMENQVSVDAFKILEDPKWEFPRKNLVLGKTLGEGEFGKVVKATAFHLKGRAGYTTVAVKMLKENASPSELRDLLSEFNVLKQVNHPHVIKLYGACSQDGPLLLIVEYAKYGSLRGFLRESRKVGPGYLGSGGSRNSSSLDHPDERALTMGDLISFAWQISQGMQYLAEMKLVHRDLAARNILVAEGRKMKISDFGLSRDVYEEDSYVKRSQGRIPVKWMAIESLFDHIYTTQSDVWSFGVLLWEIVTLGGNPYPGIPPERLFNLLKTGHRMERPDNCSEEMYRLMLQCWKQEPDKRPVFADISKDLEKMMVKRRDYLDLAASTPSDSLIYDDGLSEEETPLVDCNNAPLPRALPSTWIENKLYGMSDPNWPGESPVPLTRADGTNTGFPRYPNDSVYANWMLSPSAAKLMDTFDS

| SMILES | purity ([1]; day 0) | purity ([1]; day 30 at 40° C.) | purity ([1]; day 30 at 60° C.) | purity ([1]; day 30 under 75% RH) | purity ([1]; day 30 under 92.5% RH) | purity ([1]; day 30 under illumination) | D50 (granularity) (Granularity test) | D90 (granularity) (Granularity test) | angle of repose ([2]; measurement 1) | angle of repose ([2]; measurement 2) | angle of repose ([2]; measurement 3) | hygroscopicity (Hygroscopicity test) | stability compared to the amorphous form [1] | fluidity compared to the amorphous form [2] | hygroscopicity compared to the amorphous form (Hygroscopicity test) | also measured |
| --- | --- | --- | --- | --- | --- | --- | --- | --- | --- | --- | --- | --- | --- | --- | --- | --- |
| Cc1cc(Nc2cc(C)[nH]n2)nc(N2CC3CCC(C2)N3C(=O)c2ccc(-n3cc(F)cn3)nn2)n1 [amorphous form, (6-(4-fluoro-1H-pyrazol-1-yl)pyridazin-3-yl)(3-(4-methyl-6-((5-methyl-1H-pyrazol-3-yl)amino)pyrimidin-2-yl) 3,8-diazabicyclo[3.2.1]octane-8-yl) methanone, reference compound] | 96.77 | 96.17 (its | 95.98 (its | 95.94 | 95.23 | 94.37 | 3.52 μm | 18.45 μm | 43.8° | 44.3° | 43.4° | 0.45% |  |  |  | X-ray powder diffraction pattern after storage ([1]; day 30 at 40° C.): changes); X-ray powder diffraction pattern after storage ([1]; day 30 at 60° C.): changes); granularity compared to crystal forms A, B, C, D and E (Granularity test; conclusion from Table 7): significantly smaller; D50 of amorphous form relative to the crystal form D50 (Granularity test; versus crystal forms A-E): not more than 12%; D90 of amorphous form relative to the crystal form D90 (Granularity test; versus crystal forms A-E): not more than 25% |
| Cc1cc(Nc2cc(C)[nH]n2)nc(N2CC3CCC(C2)N3C(=O)c2ccc(-n3cc(F)cn3)nn2)n1 [compound represented by formula I, (6-(4-fluoro-1H-pyrazol-1-yl)pyridazin-3-yl)(3-(4-methyl-6-((5-methyl-1H-pyrazol-3-yl)amino)pyrimidin-2-yl)-3,8-diazabicyclo[3.2.1]octan-8-yl) methanone] |  |  |  |  |  |  |  |  |  |  |  |  |  |  |  | effect of inhibiting RET kinase (RET kinase): good effect of inhibiting RET kinase |
| Cc1cc(Nc2cc(C)[nH]n2)nc(N2CC3CCC(C2)N3C(=O)c2ccc(-n3cc(F)cn3)nn2)n1 [crystal form A, (6-(4-fluoro-1H-pyrazol-1-yl)pyridazin-3-yl)(3-(4-methyl-6-((5-methyl-1H-pyrazol-3-yl)amino)pyrimidin-2-yl)-3,8-diazabicyclo[3.2.1]octan-8-yl) methanone] | 99.85 | 99.80 | 99.77 | 99.67 | 99.48 | 98.88 | 38.62 μm | 95.11 μm | 32.5° | 31.9° | 32.2° | 0.02% | better stability | significantly superior | significantly better |  |
| Cc1cc(Nc2cc(C)[nH]n2)nc(N2CC3CCC(C2)N3C(=O)c2ccc(-n3cc(F)cn3)nn2)n1 [crystal form B, (6-(4-fluoro-1H-pyrazol-1-yl)pyridazin-3-yl)(3-(4-methyl-6-((5-methyl-1H-pyrazol-3-yl)amino)pyrimidin-2-yl)-3,8-diazabicyclo[3.2.1]octan-8-yl) methanone] | 99.80 | 99.68 | 99.62 | 99.52 | 99.23 | 98.56 | 32.53 μm | 86.77 μm | 33.4° | 34.1° | 34.2° | 0.05% | better stability | significantly superior | significantly better |  |
| Cc1cc(Nc2cc(C)[nH]n2)nc(N2CC3CCC(C2)N3C(=O)c2ccc(-n3cc(F)cn3)nn2)n1 [crystal form C, (6-(4-fluoro-1H-pyrazol-1-yl)pyridazin-3-yl)(3-(4-methyl-6-((5-methyl-1H-pyrazol-3-yl)amino)pyrimidin-2-yl)-3,8-diazabicyclo[3.2.1]octan-8-yl) methanone] | 99.75 | 99.51 | 99.38 | 99.45 | 99.08 | 98.22 | 31.58 μm | 79.47 μm | 33.8° | 33.9° | 33.2.° | 0.06% | better stability | significantly superior | significantly better |  |
| Cc1cc(Nc2cc(C)[nH]n2)nc(N2CC3CCC(C2)N3C(=O)c2ccc(-n3cc(F)cn3)nn2)n1 [crystal form D, (6-(4-fluoro-1H-pyrazol-1-yl)pyridazin-3-yl)(3-(4-methyl-6-((5-methyl-1H-pyrazol-3-yl)amino)pyrimidin-2-yl)-3,8-diazabicyclo[3.2.1]octan-8-yl) methanone] | 99.60 | 99.42 | 99.33 | 99.35 | 99.01 | 98.23 | 33.64 μm | 83.56 μm | 33.0° | 33.8° | 33.3° | 0.08% | better stability | significantly superior | significantly better |  |
| Cc1cc(Nc2cc(C)[nH]n2)nc(N2CC3CCC(C2)N3C(=O)c2ccc(-n3cc(F)cn3)nn2)n1 [crystal form E, (6-(4-fluoro-1H-pyrazol-1-yl)pyridazin-3-yl)(3-(4-methyl-6-((5-methyl-1H-pyrazol-3-yl)amino)pyrimidin-2-yl)-3,8-diazabicyclo[3.2.1]octan-8-yl) methanone] | 99.76 | 99.70 | 99.65 | 99.60 | 99.50 | 98.65 | 30.36 μm | 75.89 μm | 34.2° | 35.1° | 34.8° | 0.05% | better stability | significantly superior | significantly better |  |

— patent US20260258020A1, “CRYSTAL FORM OF PIPERAZINE AMIDE DERIVATIVE, PREPARATION METHOD THEREFOR AND USE THEREOF” (ZHEJIANG HISUN PHARMACEUTICAL CO., LTD., priority 2022, published 2026)
